Results from PubChem BioAssay (NCI).
Several values for one entry are separate records, joined by “and”; a condition that tells them apart may be missing. Equal values may be shown once.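 Assay format: 96-well plates, 48-hour exposure. GI50 marks 50% less growth. Definition used: TGI = concentration required for complete inhibition of growth.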

Experiments:
Experiment in all cases: NCI tumour cell line growth inhibition, 48 h
HCT-15 colon = test system: HCT-15 colon
RPMI-8226 leukemia = test system: RPMI-8226 leukemia
SK-MEL-2 melanoma = test system: SK-MEL-2 melanoma
SN12C renal = test system: SN12C renal
U251 CNS = test system: U251 CNS
SK-MEL-28 melanoma = test system: SK-MEL-28 melanoma
A498 renal = test system: A498 renal
HOP-62 NSCLC = test system: HOP-62 NSCLC

SMILES | GI50 (HCT-15 colon) | TGI (HCT-15 colon) | GI50 (RPMI-8226 leukemia) | TGI (RPMI-8226 leukemia) | GI50 (SK-MEL-2 melanoma) | TGI (SK-MEL-2 melanoma) | GI50 (SN12C renal) | TGI (SN12C renal) | GI50 (U251 CNS) | TGI (U251 CNS) | GI50 (SK-MEL-28 melanoma) | TGI (SK-MEL-28 melanoma) | GI50 (A498 renal) | TGI (A498 renal) | GI50 (HOP-62 NSCLC) | TGI (HOP-62 NSCLC)
O=C(Nc1ccncc1)C(=O)c1cn(S(=O)(=O)c2ccccc2F)c2ccccc12 | 0.546 µM | > 100 µM | 2.54 µM | > 32.7 µM | 5.2 µM | > 57.8 µM | 2.65 µM | > 90.6 µM | 1.89 µM | 34.3 µM | 3.59 µM | 49.1 µM | 5.47 µM | 63.3 µM | 1.96 µM | 34.3 µM
CCc1oc2ccccc2c1C(=O)c1cc(Br)c(O)c(Br)c1 |  | 76.2 µM |  | 75.5 µM |  | 45.3 µM |  | 67.3 µM |  | 31 µM |  | > 100 µM |  | 45 µM |  | 85.7 µM
O=C(CNC(=O)c1cccc2ccccc12)Nc1ccccc1Oc1ccccc1 | 0.245 µM | > 10 µM | 0.318 µM | > 10 µM | 0.272 µM | > 10 µM | 0.583 µM | > 10 µM | 0.328 µM | > 10 µM | 0.813 µM | > 10 µM | 0.256 µM | > 10 µM | 0.354 µM | > 10 µM
Cc1nc(NC(=S)Nc2ccc(F)cc2)sc1C(=O)NNC(=S)Nc1ccc(F)cc1 |  |  | 2.2 µM | 6.9 µM | 19.4 µM | 60.3 µM | 10.2 µM | 32.1 µM |  |  | 8.65 µM | 28.3 µM | 2.4 µM | 15.4 µM | 26.5 µM | 82.5 µM
C=C1C(=O)O[C@@H]2C[C@@H](C)[C@@H]3[C@@H](OC4OC(COC(C)=O)C(O)C(O)C4O)CC(=O)[C@@]3(C)C[C@H]12 (some centres undefined) |  | 0.582 µM |  | 8.53 µM |  | 20.7 µM |  | 3.51 µM |  | 19.7 µM |  | 6.27 µM |  | 30.1 µM |  | 31.6 µM
Cc1ccc(C(=O)N/N=C/c2cccc(Oc3ccccc3)c2)cn1 | 3.89 µM | > 100 µM | 2.66 µM | 8.58 µM | > 24.6 µM | > 100 µM | 17.3 µM | > 100 µM | 6.03 µM | > 100 µM | 27.3 µM | > 100 µM | 9.99 µM | > 100 µM | 60.2 µM | > 100 µM
CN(C)CC#Cc1cccc(C(=O)c2cnn(-c3ccc(F)cc3)c2N)c1 | > 23.8 µM | > 25 µM | > 25 µM | > 25 µM | > 25 µM | > 25 µM | > 25 µM | > 25 µM | > 25 µM | > 25 µM | > 25 µM | > 25 µM | > 21.3 µM | > 25 µM | > 25 µM | > 25 µM
CO/N=C1/NC(=O)/C(=C/c2ccc3ncccc3c2)S1 | 9.13 µM | > 25 µM | > 25 µM | > 25 µM | 12.1 µM | > 25 µM | 16.3 µM | > 25 µM | 9.39 µM | > 25 µM | 19.5 µM | > 25 µM | 3.41 µM | 11.5 µM | > 22.6 µM | > 25 µM
CN(/N=N/c1nc(OCc2ccccc2)c2[nH]cnc2n1)C(=O)N(C)/N=N/c1nc(OCc2ccccc2)c2[nH]cnc2n1 | 35.4 µM | > 100 µM | 38.1 µM | > 100 µM | 65.3 µM | > 100 µM | 56.6 µM | > 100 µM | 49.9 µM | > 100 µM | > 100 µM | > 100 µM | 19.7 µM | 54 µM | 96.1 µM | > 100 µM
O=C(Nc1ccc(Nc2ccncc2)cc1)c1ccc(Nc2ccnc3ccc([N+](=O)[O-])cc23)cc1 | > 100 µM | > 100 µM | > 100 µM | > 100 µM | > 100 µM | > 100 µM | > 100 µM | > 100 µM | 30.1 µM | > 100 µM | 63.8 µM | > 100 µM | > 100 µM | > 100 µM | > 100 µM | > 100 µM
CCN(CC)CCCC(C)Nc1cnc(C(=O)Nc2cc(F)cc3cccnc23)cn1 (centres undefined) | 3.45 µM and 0.751 µM | 13.8 µM and 2.69 µM | 2.97 µM and 0.502 µM | 12.2 µM and > 20.5 µM | 3.78 µM and 2.55 µM | 10.8 µM and 6.39 µM | 6.4 µM and 1.23 µM | 19.3 µM and 2.54 µM | 5.72 µM and 1.56 µM | 18.4 µM and 3.01 µM | 1.84 µM and 1.22 µM | 3.53 µM and 2.5 µM | 2.72 µM and 1.6 µM | 14.5 µM and 3.24 µM | 10.8 µM and 1.89 µM | 25.3 µM and 3.62 µM
Fc1ccc(-c2nnc3sc(-c4cccc(Cl)c4)nn23)cc1Cl | > 100 µM | > 100 µM | > 100 µM | > 100 µM | > 100 µM | > 100 µM | > 100 µM | > 100 µM | > 100 µM | > 100 µM | > 100 µM | > 100 µM | > 100 µM | > 100 µM | > 100 µM | > 100 µM
Cc1cc2c(C(N)=O)cccc2n1-c1nc2c(c(NCc3ccccc3)n1)CCCN2 | 0.162 µM | 0.467 µM | 0.0401 µM | 0.325 µM | 0.112 µM | 0.265 µM | 0.134 µM | 0.335 µM | 0.179 µM | 0.331 µM | 0.246 µM | 0.593 µM | 0.212 µM | 0.362 µM | 0.217 µM | 0.454 µM
O=C(O)c1ccc(NS(=O)(=O)c2cccc3cccnc23)cc1 | > 100 µM | > 100 µM | > 100 µM | > 100 µM | > 100 µM | > 100 µM | > 100 µM | > 100 µM | > 100 µM | > 100 µM | > 100 µM | > 100 µM | > 100 µM | > 100 µM | > 100 µM | > 100 µM
COc1cc(-c2cn(-c3ccc(Cl)cc3)c(=O)[nH]2)cc(OC)c1OC | > 100 µM | > 100 µM | > 100 µM | > 100 µM | > 100 µM | > 100 µM | > 100 µM | > 100 µM | > 100 µM | > 100 µM | > 100 µM | > 100 µM | > 100 µM | > 100 µM | > 100 µM | > 100 µM
O=c1[nH]nc2c3c(cccc13)NC(CN1Cc3ccccc3C1)=N2 | 6.13 µM | > 100 µM | 8.17 µM | > 100 µM | > 100 µM | > 100 µM | 6.75 µM | > 100 µM | 8.05 µM | > 100 µM | 15.3 µM | > 100 µM | 4.7 µM | > 100 µM | 3.2 µM | > 100 µM
COc1ccc(/C=C(\C#N)c2cc(OC)c3c(c2)OCO3)cc1 | 0.0118 µM | > 73.6 µM | 0.019 µM | 27 µM | < 0.017 µM | 2.81 µM | 0.0583 µM | > 100 µM | < 0.0179 µM | 69.9 µM | 0.0117 µM | 44.8 µM | < 0.01 µM | 0.193 µM | < 0.0125 µM | 24.1 µM
c1cncc(CNc2ccccc2-c2nnc(Nc3ccc4c(c3)OCCO4)o2)c1 | 0.107 µM | > 100 µM | 0.28 µM | 17.7 µM | 0.217 µM | > 100 µM | 0.482 µM | > 100 µM | 0.157 µM | > 100 µM | 0.145 µM | > 100 µM | 0.138 µM | 1.8 µM | 0.181 µM | > 100 µM
C=C(CN1CCN(c2ccccc2F)CC1)c1ccc(C(=O)Nc2ccccc2N)cc1 | 0.737 µM | > 100 µM | 1.16 µM | 3.78 µM | 8.5 µM | > 100 µM | 1.82 µM | 40.9 µM | 1.4 µM | 14.7 µM | 2.57 µM | 53.9 µM | 2.51 µM | 22.9 µM | 1.15 µM | 9.45 µM
O=[N+]([O-])c1cc(Br)cc2c1[nH]c1ccc(Br)cc12 | 28 µM | > 100 µM | 25.4 µM | > 100 µM | 6.22 µM | 41.5 µM | 53.8 µM | > 100 µM | 14.8 µM | 93.2 µM | 39 µM | > 100 µM | 6.86 µM | 81.8 µM | 2.11 µM | 5 µM
Cc1nn2c(/C=C3/C(=O)Nc4ccc(Cl)cc43)c(-c3ccccc3)nc2s1 | 4.65 µM | 31.9 µM | 2.94 µM | 22.1 µM | 4.04 µM | 18.4 µM | 3.95 µM | 18.4 µM | 1.73 µM | 3.71 µM | 2.65 µM | 7.06 µM | 1.63 µM | 10.6 µM | 2.01 µM | 3.99 µM
O=C(N/N=C/c1ccc(O)cc1O)c1ccc(Nc2ccnc(C(F)(F)F)c2)cc1 | > 100 µM | > 100 µM | > 100 µM | > 100 µM | > 59.1 µM | > 100 µM | 24.4 µM | > 100 µM | 0.248 µM | 21.2 µM | 7.5 µM | > 100 µM | > 41.3 µM | 97.4 µM |  | 
Cc1nc(Nc2ccc(F)c(Cl)c2)sc1C(=O)O |  |  | 2.16 µM | 6.22 µM | 1.97 µM | 3.8 µM | 1.53 µM | 3.56 µM | 1.44 µM | 3.04 µM | 1.77 µM | 3.68 µM | 1.64 µM | 4.16 µM | 1.42 µM | 2.93 µM
